We go through 57 compounds from paper PMC5062169, “Structural basis for ligand recognition by a Cache chemosensory domain that mediates carboxylate sensing in Pseudomonas syringae” (Scientific Reports, 2016).

Peptide text beside a SMILES is read from it.

For the first assay, the target named is T1, PscD (PscD-SD, Cache sensor domain of chemoreceptor PscD) (Pseudomonas syringae, UniProt A0ABY1U976).
T1 construct: gene CFBP3846_03581; sensor domain, Gln31-Trp188, N-terminal His6 tag
T1 sequence (A0ABY1U976 31-188): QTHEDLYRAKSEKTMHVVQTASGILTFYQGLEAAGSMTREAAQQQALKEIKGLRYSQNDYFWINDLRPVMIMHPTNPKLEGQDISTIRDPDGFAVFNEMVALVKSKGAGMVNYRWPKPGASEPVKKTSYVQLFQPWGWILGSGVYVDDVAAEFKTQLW
Particulars: Biolog plate compound, exact concentration unknown; binder. An excerpt: (§1) We used high-throughput fluorescence thermal shift (FTS) assays (as described previously[16]) to screen for potential ligands of PscD-SD. FTS assays are based on the principle that ligands stabilise proteins upon binding, causing an increase in the melting temperature of the protein[22][23]. Binding can therefore be rapidly screened by measuring the difference in the temperature midpoint of unfolding (ΔTm) of a protein in the presence and absence of potential ligands. In our FTS assays, the Tm was measured by monitoring an increase in fluorescence of a dye with affinity for hydrophobic parts of the protein (i.e. SYPRO Orange), which are exposed as the protein unfolds. We screened the recombinant PscD-SD protein in FTS assays against the compounds in Biolog Phenotype Microarray (PM) plates 1 and 2 (Supplementary Tables 1 and 2). Each plate contains 95 different compounds (e.g., organic acids, sugars) and a water (no ligand) control. For use in FTS assays, the compounds were resuspended directly in water, thus generating a library of biologically relevant potential ligands. […] Fluorescent thermal shift (FTS) assays were conducted as reported previously. PscD-SD was screened for potential ligands against Biolog Phenotype Microarray (PM) plates 1 and 2 (Biolog, Hayward, CA, USA). For initial qualitative, high-throughput screening, ligands were prepared by dissolving Biolog PM compounds in 50 μL of water (each) to obtain a final concentration of approximately 10–20 mM (the exact concentrations vary from well-to-well). Screens were set up in Lightcycler 480 multiwell plates (Roche Diagnostics, Auckland, NZ) with 20 μM protein, a 5x concentration of SYPRO orange (Life Technologies, Carlsbad, CA, USA) and 5 μL of the test compound (i.e. resuspended Biolog ligands) added to each well. The plate was covered with Lightcycler 480 sealing film (Roche Diagnostics) and fluorescence signal was monitored as the temperature was increased from 20 °C to 80 °C at a rate of 1.2 °C.min^−1 in a Lightcycler 480 (Roche Diagnostics). Initial hits were further tested using known concentrations (0, 1, 2, 5 and 10 mM) of each potential ligand to confirm binding. The ligands were prepared as 10x stocks, 2 μL were added to each well, and the experiments were conducted as described above. The first derivative values (−dF/dt) from the raw fluorescence data were used to determine the melting temperature (Tm). Three biological replicates (from independently cultured and purified batches of protein) were performed for each plate screened.
Take `OC[C@H]1O[C@@H](O[C@@H]2[C@@H](CO)OC(O)(CO)[C@H]2O)[C@H](O)[C@@H](O)[C@H]1O` (mixture of isomers) [Lactulose]: the “Δ Tm” value was found to be 0.20 ± 0.03 °C.
As to `CC(O)CO` (stereo not drawn) [1,2-Propanediol], the “Δ Tm” value was 0.12 ± 0.05 °C.
Turning to `NCCO` [2-Aminoethanol], the “Δ Tm” value was 0.15 ± 0.05 °C.
On the same count and under the same terms, with `Nc1ncnc2c1ncn2[C@H]1C[C@H](O)[C@@H](CO)O1` [2-Deoxy-Adenosine] the figure was 0.17 ± 0.05 °C; with `CC(=O)CC(=O)O` [Acetoacetic Acid], 0.63 ± 0.05 °C.
On to `Nc1ncnc2c1ncn2[C@@H]1O[C@H](CO)[C@@H](O)[C@H]1O` [Adenosine], for which the “Δ Tm” value was determined as 0.15 ± 0.05 °C.
Turning to `OC[C@@H](O)[C@@H](O)[C@@H](O)CO` [Adonitol], the “Δ Tm” value worked out at 0.12 ± 0.03 °C.
Same read-out and setting: with `O=C(O)CC(Br)C(=O)O` (stereo not drawn) [Bromo Succinic Acid] the figure was 0.05 ± 0.10 °C.
The same measure, in the same setting: with `C[C@@H](N)C(=O)O` [D-Alanine] the figure was 0.12 ± 0.03 °C; with `O=C(CO)[C@@H](O)[C@H](O)[C@H](O)CO` [D-Fructose], 0.17 ± 0.05 °C; with `O=C[C@H](O)[C@@H](O)[C@@H](O)[C@H](O)CO` [D-Galactose], 0.17 ± 0.02 °C.
Turning to `O=C(O)[C@H](O)[C@@H](O)[C@H](O)[C@H](O)CO` [D-Gluconic Acid], the “Δ Tm” value came to 0.17 ± 0.02 °C.
On the same count and under the same terms, the figure for `N[C@@H](C(=O)O)[C@@H](O)[C@H](O)[C@H](O)CO` [D-Glucosaminic Acid] is 0.10 ± 0.05 °C.
Same read-out and setting: the figure for `O=P(O)(O)O[C@H]1O[C@H](CO)[C@@H](O)[C@H](O)[C@H]1O` [D-Glucose-1-Phosphate] is 0.10 ± 0.05 °C; for `O=C(O)C[C@@H](O)C(=O)O` [D-Malic Acid] it is 0.17 ± 0.05 °C; for `OC[C@@H](O)[C@@H](O)[C@H](O)[C@H](O)CO` [D-Mannitol] it is 0.17 ±0.05 °C.
Take `OC[C@H]1OC(O)[C@@H](O)[C@@H](O)[C@@H]1O` (stereo partly drawn) [D-Mannose]: the “Δ Tm” value stood at 0.17 ± 0.05 °C.
Same read-out and setting: with `O[C@@H]1[C@H](O)[C@H](O)CO[C@H]1O` [D-Ribose] the figure was 0.12 ±0.05 °C; with `N[C@H](CO)C(=O)O` [D-Serine], 0.00 ± 0.00 °C.
The same measure, in the same setting: the figure for `OC[C@@H](O)[C@@H](O)[C@H](O)[C@@H](O)CO` [D-Sorbitol] is 0.05 ± 0.07 °C.
Consider `O=CO` [Formic Acid], for which the “Δ Tm” value was found to be 0.20 ±0.03 °C.
On the same count and under the same terms, with `NC(=O)[C@H]1O[C@@H](O)[C@H](O)[C@@H](O)[C@@H]1O` [Glucuronamide] the figure was 0.17 ± 0.06 °C.
On the same count and under the same terms, with `OCC(O)CO` [Glycerol] the figure was 0.10 ± 0.05 °C.
Same read-out and setting: with `NCC(=O)N[C@@H](CC(=O)O)C(=O)O` [Glycyl-L-Aspartic Acid] (H-Gly-Asp-OH) the figure was 0.00 ± 0.00 °C; with `NCC(=O)N[C@@H](CCC(=O)O)C(=O)O` [Glycyl-L-Glutamic Acid] (H-Gly-Glu-OH), 0.00 ± 0.00 °C.
As to `NCC(=O)N1CCC[C@H]1C(=O)O` [Glycyl-L-Proline] (H-Gly-Pro-OH), the “Δ Tm” value amounted to 0.00 ± 0.00 °C.
On to `O=c1[nH]cnc2c1ncn2[C@@H]1O[C@H](CO)[C@@H](O)[C@H]1O` [Inosine], for which the “Δ Tm” value stood at 0.15 ± 0.05 °C.
The same measure, in the same setting: the figure for `C[C@H](N)C(=O)O` [L-Alanine] is 0.10 ± 0.03 °C; for `C[C@H](N)C(=O)NCC(=O)O` [L-Alanyl-Glycine] (H-Ala-Gly-OH) it is 0.07 ± 0.08 °C; for `O[C@@H]1[C@@H](O)[C@@H](O)CO[C@H]1O` [L-Arabinose] it is 0.05 ± 0.07 °C.
Still for that read-out and setting: the figure for `NC(=O)C[C@H](N)C(=O)O` [L-Asparagine] is 0.00 ± 0.00 °C; for `N[C@@H](CC(=O)O)C(=O)O` [L-Aspartic Acid] it is 0.17 ± 0.05 °C.
Consider `C[C@H](O)[C@@H](O)[C@@H](O)[C@H](O)C=O` [L-Fucose], for which the “Δ Tm” value amounted to 0.12 ± 0.05 °C.
Same read-out and setting: the figure for `NC(=O)CC[C@H](N)C(=O)O` [L-Glutamine] is 0.00 ± 0.00 °C; for `C[C@H](O)C(=O)O` [L-Lactic Acid] it is 0.12 ±0.03 °C.
Same read-out and setting: the figure for `O=C[C@H](O)[C@H](O)[C@@H](O)CO` [L-Lyxose] is 0.28 ± 0.05 °C.
On the same count and under the same terms, the figure for `O=C(O)[C@@H]1CCCN1` [L-Proline] is 0.07 ± 0.04 °C.
`N[C@@H](CO)C(=O)O` [L-Serine]: the “Δ Tm” value was 0.10 ± 0.05 °C.
Still for that read-out and setting: with `C[C@@H](O)[C@H](N)C(=O)O` [L-Threonine] the figure was 0.12 ± 0.05 °C.
As to `N[C@@H](CCC(=O)O)C(=O)O` [L-glutamic acid], the “Δ Tm” value was 0.15 ±0.05 °C.
Still for that read-out and setting: with `OC[C@H]1O[C@H](O[C@H]2[C@H](O)[C@@H](O)[C@H](O)O[C@@H]2CO)[C@H](O)[C@@H](O)[C@@H]1O` [Maltose] the figure was 0.20 ± 0.03 °C; with `COC(=O)C(C)=O` [Methyl Pyruvate], 0.48 ± 0.13 °C.
Same read-out and setting: with `COC(=O)CCC(=O)O` [Mono Methyl Succinate] the figure was 0.12 ± 0.03 °C; with `O=C(O)[C@@H](O)[C@H](O)[C@H](O)[C@@H](O)C(=O)O` [Mucic Acid], 0.07 ± 0.04 °C; with `CC(=O)N[C@@H]1[C@@H](O)[C@H](O)[C@@H](CO)O[C@@H]1O` [N-Acetyl-D-Glucosamine], 0.10 ± 0.05 °C.
Same read-out and setting: the figure for `CC(=O)N[C@H]1[C@@H](O)[C@H](O)[C@@H](CO)O[C@H]1O` [N-Acetyl-β-D-Mannosamine] is 0.07 ± 0.04 °C; for `NCCc1ccccc1` [Phenylethyl-amine] it is 0.17 ± 0.05 °C; for `O=C(O)CCC(=O)O` [Succinic Acid] it is 0.10 ± 0.03 °C.

Another assay addresses T1, PscD (PscD-SD, Cache sensor domain of chemoreceptor PscD). Also noted: fluorescence thermal shift (SYPRO Orange) screen of Biolog PM1/PM2 compounds, delta Tm. Particulars: Biolog plate compound, exact concentration unknown; binder. This is another data set of the same source.
Excerpt: as §1
With `OC[C@H]1O[C@@H]2O[C@H]3[C@H](O)[C@@H](O)[C@@H](O[C@H]4[C@H](O)[C@@H](O)[C@@H](O[C@H]5[C@H](O)[C@@H](O)[C@@H](O[C@H]6[C@H](O)[C@@H](O)[C@@H](O[C@H]7[C@H](O)[C@@H](O)[C@@H](O[C@H]1[C@H](O)[C@H]2O)O[C@@H]7CO)O[C@@H]6CO)O[C@@H]5CO)O[C@@H]4CO)O[C@@H]3CO` [α-Cyclodextrin], the “Δ Tm” value came out at 0.08 ± 0.0 °C.
Same read-out and setting: with `CO[C@H]1O[C@H](CO)[C@@H](O)[C@H](O)[C@@H]1O` [α-Methyl-D-Mannoside] the figure was 0.05 ± 0.03 °C.
As to `OC[C@H]1O[C@@H]2O[C@H]3[C@H](O)[C@@H](O)[C@@H](O[C@H]4[C@H](O)[C@@H](O)[C@@H](O[C@H]5[C@H](O)[C@@H](O)[C@@H](O[C@H]6[C@H](O)[C@@H](O)[C@@H](O[C@H]7[C@H](O)[C@@H](O)[C@@H](O[C@H]8[C@H](O)[C@@H](O)[C@@H](O[C@H]1[C@H](O)[C@H]2O)O[C@@H]8CO)O[C@@H]7CO)O[C@@H]6CO)O[C@@H]5CO)O[C@@H]4CO)O[C@@H]3CO` [β-Cyclodextrin], the “Δ Tm” value was 0.45 ± 0.0 °C.
Still for that read-out and setting: the figure for `OC[C@H]1O[C@@H](O)[C@H](O)[C@H](O)[C@@H]1O` [β-D-Allose] is 0.08 ± 0.00 °C; for `CC(O)CC(=O)O` (stereo not drawn) [β-Hydroxy Butyric Acid] it is 0.03 ± 0.05 °C; for `CO[C@@H]1OC[C@@H](O)[C@H](O)[C@H]1O` [β-Methyl-D-Xyloside] it is 0.10 ± 0.11 °C.
For the compound `OC[C@H]1O[C@@H]2O[C@H]3[C@H](O)[C@@H](O)[C@@H](O[C@H]4[C@H](O)[C@@H](O)[C@@H](O[C@H]5[C@H](O)[C@@H](O)[C@@H](O[C@H]6[C@H](O)[C@@H](O)[C@@H](O[C@H]7[C@H](O)[C@@H](O)[C@@H](O[C@H]8[C@H](O)[C@@H](O)[C@@H](O[C@H]9[C@H](O)[C@@H](O)[C@@H](O[C@H]1[C@H](O)[C@H]2O)O[C@@H]9CO)O[C@@H]8CO)O[C@@H]7CO)O[C@@H]6CO)O[C@@H]5CO)O[C@@H]4CO)O[C@@H]3CO` [γ-Cyclodextrin], the “Δ Tm” value is 0.28 ± 0.07 °C.
Still for that read-out and setting: the figure for `O=C(O)CCCO` [γ-Hydroxy Butyric Acid] is 0.08 ± 0.00 °C.
On the same count and under the same terms, the figure for `NCCCC(=O)O` [γ-amino butyric acid] is 0.05 ± 0.03 °C.
